Data taken from PMC4770715, “LIM kinase inhibitors disrupt mitotic microtubule organization and impair tumor cell proliferation” (Oncotarget, 2015).

How the values were obtained:
Experiment in all cases: biochemical
Parameters in all cases: KINOMEscan active-site competition binding, percent of control (100 = no competition)
Conditions in all cases: competition binding, percent control
[1] = biological target: T1, ABL1(F317L)-nonphosphorylated (Homo sapiens, UniProt P00519, F317L)
T1 construct: nonphosphorylated

[2] = biological target: T2, ABL1(H396P)-nonphosphorylated (Homo sapiens, UniProt P00519, H396P)
T2 construct: nonphosphorylated

[3] = biological target: T3, ABL1(H396P)-phosphorylated (Homo sapiens, UniProt P00519, H396P)
T3 construct: phosphorylated

ADCK3 = biological target: T4, ADCK3 (Homo sapiens, UniProt Q8NI60)
T4 construct: gene COQ8A
T4 sequence (Q8NI60 whole entry): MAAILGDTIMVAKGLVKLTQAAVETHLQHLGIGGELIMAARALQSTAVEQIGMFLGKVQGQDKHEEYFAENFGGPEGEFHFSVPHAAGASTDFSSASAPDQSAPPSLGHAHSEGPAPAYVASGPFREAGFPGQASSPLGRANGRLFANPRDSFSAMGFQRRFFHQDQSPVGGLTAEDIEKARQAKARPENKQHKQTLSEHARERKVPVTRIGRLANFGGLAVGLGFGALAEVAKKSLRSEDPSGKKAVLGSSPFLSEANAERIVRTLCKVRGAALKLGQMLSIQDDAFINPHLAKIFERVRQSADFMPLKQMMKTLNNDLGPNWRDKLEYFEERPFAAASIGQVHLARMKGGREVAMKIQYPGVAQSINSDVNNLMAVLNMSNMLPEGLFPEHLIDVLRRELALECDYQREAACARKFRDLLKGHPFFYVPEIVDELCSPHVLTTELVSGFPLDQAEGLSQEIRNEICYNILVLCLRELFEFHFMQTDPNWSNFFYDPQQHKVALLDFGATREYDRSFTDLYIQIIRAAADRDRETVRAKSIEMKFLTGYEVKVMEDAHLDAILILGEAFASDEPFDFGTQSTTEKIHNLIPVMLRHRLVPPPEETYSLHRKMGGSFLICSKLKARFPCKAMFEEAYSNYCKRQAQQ

ARK5 = biological target: T5, ARK5 (Homo sapiens, UniProt O60285)
T5 construct: gene NUAK1
T5 sequence (O60285 whole entry): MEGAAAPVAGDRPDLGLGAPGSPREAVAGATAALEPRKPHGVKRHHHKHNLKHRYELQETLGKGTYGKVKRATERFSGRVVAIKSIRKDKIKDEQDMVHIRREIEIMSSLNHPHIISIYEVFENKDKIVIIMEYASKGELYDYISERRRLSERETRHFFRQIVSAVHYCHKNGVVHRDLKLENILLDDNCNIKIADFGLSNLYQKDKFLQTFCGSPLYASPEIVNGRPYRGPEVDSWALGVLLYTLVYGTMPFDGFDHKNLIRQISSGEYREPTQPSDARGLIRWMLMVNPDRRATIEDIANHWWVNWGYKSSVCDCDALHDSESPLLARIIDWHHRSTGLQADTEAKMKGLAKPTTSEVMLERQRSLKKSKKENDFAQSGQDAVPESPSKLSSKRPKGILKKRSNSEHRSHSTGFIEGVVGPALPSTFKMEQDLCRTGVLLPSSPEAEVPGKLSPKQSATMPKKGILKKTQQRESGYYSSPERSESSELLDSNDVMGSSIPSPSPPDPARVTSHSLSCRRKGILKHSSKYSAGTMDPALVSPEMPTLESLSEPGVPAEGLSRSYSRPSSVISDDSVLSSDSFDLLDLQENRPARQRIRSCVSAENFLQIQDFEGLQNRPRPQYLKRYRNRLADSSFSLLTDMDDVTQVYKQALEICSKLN

CDC2L2 = biological target: T6, CDC2L2 (Homo sapiens, UniProt Q9UQ88)
T6 construct: gene CDK11A

CDC2L5 = biological target: T7, CDC2L5 (Homo sapiens, UniProt Q14004)
T7 construct: gene CDK13

CSNK1G3 = CSNK1G3 (Homo sapiens, UniProt Q9Y6M4)
DCAMKL3 = biological target: T8, DCAMKL3 (Homo sapiens, UniProt Q9C098)
T8 construct: gene DCLK3

DYRK1B = DYRK1B (Homo sapiens, UniProt Q9Y463)
DYRK1B, sequence (Q9Y463 whole entry): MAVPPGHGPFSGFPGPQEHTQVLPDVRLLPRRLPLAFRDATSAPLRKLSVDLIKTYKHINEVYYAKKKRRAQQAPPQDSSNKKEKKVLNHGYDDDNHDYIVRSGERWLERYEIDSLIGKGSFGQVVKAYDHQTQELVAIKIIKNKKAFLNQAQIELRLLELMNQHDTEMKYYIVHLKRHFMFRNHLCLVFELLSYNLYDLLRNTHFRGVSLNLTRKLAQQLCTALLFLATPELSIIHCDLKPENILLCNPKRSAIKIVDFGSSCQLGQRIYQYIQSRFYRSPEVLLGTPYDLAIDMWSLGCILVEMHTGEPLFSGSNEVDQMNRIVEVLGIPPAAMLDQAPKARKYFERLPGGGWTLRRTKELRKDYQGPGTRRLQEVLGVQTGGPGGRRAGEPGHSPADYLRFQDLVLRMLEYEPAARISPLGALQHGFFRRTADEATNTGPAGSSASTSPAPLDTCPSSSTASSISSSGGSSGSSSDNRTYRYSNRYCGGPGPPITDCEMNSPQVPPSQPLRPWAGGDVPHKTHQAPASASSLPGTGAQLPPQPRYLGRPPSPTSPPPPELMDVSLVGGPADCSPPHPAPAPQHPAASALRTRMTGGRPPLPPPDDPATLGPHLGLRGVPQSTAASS

DYRK2 = DYRK2 (Homo sapiens, UniProt Q92630)
FGFR4 = FGFR4 (Homo sapiens, UniProt P22455)
FGFR4, sequence (P22455 whole entry): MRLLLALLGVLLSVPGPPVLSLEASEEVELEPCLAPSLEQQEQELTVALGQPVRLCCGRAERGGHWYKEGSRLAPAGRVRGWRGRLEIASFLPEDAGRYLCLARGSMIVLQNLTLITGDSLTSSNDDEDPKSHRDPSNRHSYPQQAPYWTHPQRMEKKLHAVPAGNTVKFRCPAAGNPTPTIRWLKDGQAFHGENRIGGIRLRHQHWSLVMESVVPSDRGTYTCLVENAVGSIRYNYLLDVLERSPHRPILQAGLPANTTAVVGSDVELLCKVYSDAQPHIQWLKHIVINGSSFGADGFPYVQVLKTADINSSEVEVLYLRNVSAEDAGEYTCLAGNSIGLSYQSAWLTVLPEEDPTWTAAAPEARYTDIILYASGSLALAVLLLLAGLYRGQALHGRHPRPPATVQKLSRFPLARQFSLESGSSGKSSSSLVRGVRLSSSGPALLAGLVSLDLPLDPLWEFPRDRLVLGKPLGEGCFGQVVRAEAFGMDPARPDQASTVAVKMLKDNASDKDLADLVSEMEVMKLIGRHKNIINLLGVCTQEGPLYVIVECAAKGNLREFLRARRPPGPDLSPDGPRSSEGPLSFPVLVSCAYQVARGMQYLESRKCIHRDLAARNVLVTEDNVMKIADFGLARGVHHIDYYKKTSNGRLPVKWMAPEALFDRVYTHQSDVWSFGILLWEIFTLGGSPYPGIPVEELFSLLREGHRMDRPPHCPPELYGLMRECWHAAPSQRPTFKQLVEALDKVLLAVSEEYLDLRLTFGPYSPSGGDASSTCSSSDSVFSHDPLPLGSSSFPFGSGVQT

FGR = FGR (Homo sapiens, UniProt P09769)
FGR, sequence (P09769 whole entry): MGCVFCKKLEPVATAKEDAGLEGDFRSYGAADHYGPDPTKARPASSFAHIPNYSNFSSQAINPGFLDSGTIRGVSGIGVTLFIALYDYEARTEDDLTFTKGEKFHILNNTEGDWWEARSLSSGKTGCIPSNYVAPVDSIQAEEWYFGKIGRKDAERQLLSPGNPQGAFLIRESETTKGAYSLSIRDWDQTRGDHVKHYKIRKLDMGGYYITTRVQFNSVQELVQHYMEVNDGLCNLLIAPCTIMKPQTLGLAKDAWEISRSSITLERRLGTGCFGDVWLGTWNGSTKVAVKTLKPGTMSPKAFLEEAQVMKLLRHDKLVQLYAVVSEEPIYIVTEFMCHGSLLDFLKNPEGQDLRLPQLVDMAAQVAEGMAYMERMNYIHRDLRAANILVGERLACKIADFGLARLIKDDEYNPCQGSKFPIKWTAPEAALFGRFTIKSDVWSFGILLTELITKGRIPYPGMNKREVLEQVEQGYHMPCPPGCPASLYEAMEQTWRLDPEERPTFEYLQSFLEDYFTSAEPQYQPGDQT

INSRR = INSRR (Homo sapiens, UniProt P14616)
ITK = ITK (Homo sapiens, UniProt Q08881)
ITK, sequence (Q08881 whole entry): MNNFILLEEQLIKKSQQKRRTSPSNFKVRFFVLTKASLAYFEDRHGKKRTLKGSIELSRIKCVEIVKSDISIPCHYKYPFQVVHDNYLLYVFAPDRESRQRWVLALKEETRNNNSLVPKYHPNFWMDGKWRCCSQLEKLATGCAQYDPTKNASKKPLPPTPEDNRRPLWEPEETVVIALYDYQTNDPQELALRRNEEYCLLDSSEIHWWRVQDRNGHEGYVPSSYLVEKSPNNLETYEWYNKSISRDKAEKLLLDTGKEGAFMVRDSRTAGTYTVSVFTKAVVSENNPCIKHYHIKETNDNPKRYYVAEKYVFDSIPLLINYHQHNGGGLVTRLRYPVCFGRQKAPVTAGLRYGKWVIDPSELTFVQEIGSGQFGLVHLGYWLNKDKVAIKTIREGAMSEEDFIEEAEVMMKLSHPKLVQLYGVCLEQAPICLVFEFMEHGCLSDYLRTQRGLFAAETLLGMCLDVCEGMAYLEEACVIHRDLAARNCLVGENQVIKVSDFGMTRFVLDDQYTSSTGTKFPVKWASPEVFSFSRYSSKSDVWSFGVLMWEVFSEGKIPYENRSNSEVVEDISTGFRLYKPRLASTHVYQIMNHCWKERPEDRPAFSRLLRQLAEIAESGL

JNK3 = biological target: T9, JNK3 (Homo sapiens, UniProt P53779)
T9 construct: gene MAPK10
T9 sequence (P53779 whole entry): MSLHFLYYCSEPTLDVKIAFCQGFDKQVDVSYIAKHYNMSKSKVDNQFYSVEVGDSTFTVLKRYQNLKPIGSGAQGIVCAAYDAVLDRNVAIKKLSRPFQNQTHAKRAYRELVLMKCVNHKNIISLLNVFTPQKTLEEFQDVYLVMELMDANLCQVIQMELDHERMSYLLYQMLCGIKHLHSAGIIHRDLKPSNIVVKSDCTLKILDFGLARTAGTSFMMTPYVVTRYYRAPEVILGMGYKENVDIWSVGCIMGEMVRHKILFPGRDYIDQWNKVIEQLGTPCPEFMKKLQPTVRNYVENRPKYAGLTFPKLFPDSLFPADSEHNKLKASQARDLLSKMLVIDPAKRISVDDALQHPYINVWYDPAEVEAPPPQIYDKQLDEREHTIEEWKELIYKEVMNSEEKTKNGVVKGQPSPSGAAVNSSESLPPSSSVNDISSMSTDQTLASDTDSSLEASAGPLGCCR

KIT(A829P) = KIT(A829P) (Homo sapiens, UniProt P10721, A829P)
MYLK = MYLK (Homo sapiens, UniProt Q15746)
PIK3CA(C420R) = PIK3CA(C420R) (Homo sapiens, UniProt P42336, C420R)
PIK3CA(I800L) = PIK3CA(I800L) (Homo sapiens, UniProt P42336, I800L)
PIM3 = PIM3 (Homo sapiens, UniProt Q86V86)
SGK3 = SGK3 (Homo sapiens, UniProt Q96BR1)
TIE1 = TIE1 (Homo sapiens, UniProt P35590)

Compound COc1ccc(-c2cnccc2-c2cnc(NC(=O)C(C)C)s2)c(C(F)(F)F)c1 [CRT0105446, N-{5-[3-(4-Methoxy-2-trifluoromethyl-phenyl)-pyridin-4-yl]-hiazol-2-yl}-isobutyramide] has a remaining binding at 10 µM [1] of 92%, a remaining binding at 10 µM [2] of 71% and a remaining binding at 10 µM [3] of 82%. It also gave a remaining binding at 10 µM (ADCK3) of 98%, a remaining binding at 10 µM (ARK5) of 59% and a remaining binding at 10 µM (CDC2L2) of 59%. It also gave a remaining binding at 10 µM (CDC2L5) of 14%, a remaining binding at 10 µM (CSNK1G3) of 67% and a remaining binding at 10 µM (DCAMKL3) of 88%. The remaining binding at 10 µM (DYRK1B) was 40%, the remaining binding at 10 µM (DYRK2) was 81% and the remaining binding at 10 µM (FGFR4) was 90%. It also gave a remaining binding at 10 µM (FGR) of 93%, a remaining binding at 10 µM (INSRR) of 96% and a remaining binding at 10 µM (ITK) of 100%. For the same compound, the remaining binding at 10 µM (JNK3) was 36%, the remaining binding at 10 µM (KIT(A829P)) was 100% and the remaining binding at 10 µM (MYLK) was 100%. For the same compound, the remaining binding at 10 µM (PIK3CA(C420R)) was 100%, the remaining binding at 10 µM (PIK3CA(I800L)) was 100% and the remaining binding at 10 µM (PIM3) was 95%. It also gave a remaining binding at 10 µM (SGK3) of 95% and a remaining binding at 10 µM (TIE1) of 87%.
In the case of Cc1ccc(-c2cnccc2-c2cnc(Nc3ccc(O)cc3)s2)c(Cl)c1 [CRT0105950, 4-{5-[3-(2-Chloro-4-methyl-phenyl)-pyridin-4-yl]-thiazol-2-ylamino}-phenol], the remaining binding at 10 µM [1] is reported as 86%, the remaining binding at 10 µM [2] is reported as 27% and the remaining binding at 10 µM [3] is reported as 72%. The remaining binding at 10 µM (ADCK3) was 56%, the remaining binding at 10 µM (ARK5) was 49% and the remaining binding at 10 µM (CDC2L2) was 89%. For the same compound, the remaining binding at 10 µM (CDC2L5) was 26%, the remaining binding at 10 µM (CSNK1G3) was 43% and the remaining binding at 10 µM (DCAMKL3) was 7.4%. The remaining binding at 10 µM (DYRK1B) was 5.6%, the remaining binding at 10 µM (DYRK2) was 79% and the remaining binding at 10 µM (FGFR4) was 29%. It also gave a remaining binding at 10 µM (FGR) of 32%, a remaining binding at 10 µM (INSRR) of 0.15% and a remaining binding at 10 µM (ITK) of 61%. For the same compound, the remaining binding at 10 µM (JNK3) was 25%, the remaining binding at 10 µM (KIT(A829P)) was 35% and the remaining binding at 10 µM (MYLK) was 28%. The remaining binding at 10 µM (PIK3CA(C420R)) was 88%, the remaining binding at 10 µM (PIK3CA(I800L)) was 100% and the remaining binding at 10 µM (PIM3) was 72%. It also gave a remaining binding at 10 µM (SGK3) of 72% and a remaining binding at 10 µM (TIE1) of 16%.
